Test results: US20120301551A1, “COMPOUNDS AND COMPOSITIONS FOR TREATING NEURONAL DEATH OR NEUROLOGICAL DYSFUNCTION” (Neurotech Pharmaceuticals Co., Ltd., priority 2005, published 2012)
Several values for one entry are separate records, joined by “and”; a condition that tells them apart may be missing. Equal values may be shown once. Entries after “also recorded” stand apart in the source; their conditions may differ. Read-outs that look alike come from different tables or passages of the source. Residues, ends and D or L forms follow the SMILES beside them. *: point of attachment. Cbz = O=C(OCc1ccccc1)*; CH2F = FC*

Legend:
[1] = single-dose toxicity test; details: mouse, in vivo
Experimental: Single-dose toxicity test of compounds showing good results in the above three efficacy tests were evaluated.

[2] = tested on: beta-amyloid (Aβ42); experiment: suppression of beta-amyloid (Aβ42) production in CHO cells (ELISA); format: cell-based, Chinese hamster; details: Cricetulus griseus; CHO cells stably transfected with human wild APP695 and PS1ΔExon9; culture medium, ELISA; read-out: Aβ42 lowering effect (IC50)
Experimental: The suppressing effects of many drug candidates on production of beta-amyloid were evaluated in CHO cell line having the increased level of beta-amyloid. Results were shown as IC50 (uM) (Item C of Table 3 below).
In the Table 3, A, B and C mean neuron protecting effect against Fe^+2, suppressing effect on production of NO and suppressing effect on production of beta-amyloid, respectively. The term “ND” means “Not determined.”
Cells were treated with increasing concentrations of various chemicals in Chinese hamster ovary (CHO) cells stably transfected with human wild APP695 and the PS1ΔExon9, and analyzed Aβ42 levels in culture medium by colorimetric sandwich ELISA kit (BIOSOURCE, Camarillo, Calif.). In CHO cells, IC50 of Chemical—01-08 on Aβ42 lowering effect was 20-100 uM (Table 4).

[3] = tested on: neuron-rich cortical cell cultures; experiment: serum deprivation-induced neuronal cell apoptosis; format: cell-based, mouse; details: 24 hr; 5 mM Li^+, 100 μM zVADfmk, 1 μM 2-hydroxy TTBA
Experimental: (§1) (B) Neuron-rich cortical cell cultures (DIV 7) were deprived of serum, alone or with addition of 100 μM zVADfmk, 1 μM 2-hydroxy TTBA, or 5 mM Li^+. Neuronal death was analyzed 24 hr later by counting viable neurons excluding trypan (mean±SEM, n=4). *, Significant difference from the relevant control (serum deprivation alone), p<0.05 using ANOVA and Student-Neuman-Keuls test. (C) Western blot analysis of FADD antibody following immunoprecipitation with Fas antibody in the same samples above.
(§2) Additional experiments were performed to examine if targeting both neuronal cell necrosis and apoptosis would result in synergic neuroprotection in […] transgenic mice. […] Neuronal cell apoptosis was induced by serum deprivation in neuron-rich cortical cell cultures as reported, which was prevented by addition of 5 mM Li^+ as well as zVADfmk, a broad spectrum inhibitor of caspases (FIG. 5B). […] Additional experiments were performed to examine if Li^+ would prevent Fas signaling pathway. […] This implies that 2-Hydroxy-TTBA and Li^+ blocks oxidative neuronal cell necrosis and apoptosis, respectively.

[4] = tested on: Fas, FADD, cleaved caspase-8 and caspase-3; experiment: Fas pathway in lumbar spinal cord of G93A transgenic mice (Western blot); details: at 12 weeks of age; 2-hydroxy-TTBA 30 mg/kg/d, Li^+ 200 mg/kg/d in the diet
Experimental: G93A transgenic mice received oral administration of 2-hydroxy-TTBA (30 mg/kg/d) in the diet from 8 weeks of age.

[5] = tested on: mixed cortical cell cultures containing neurons and glia; experiment: BSO-induced free radical neurotoxicity in mixed cortical cell cultures (LDH release); format: cell-based, mouse
Experimental: Mouse cortical cell cultures (DIV 11-15) were exposed to 10 mM BSO, alone or with indicated doses of 2-Hydroxy-TTBA or 2-Hydroxy-TPEA. Neuronal death was analyzed 24 hr later by measuring levels of LDH released into the bathing medium, mean±SEM (n=9-12 culture wells per condition). *, Significant difference from BSO alone, p<0.05 using ANOVA and Student-Newman-Keuls test.
(§3) Mouse cortical cell cultures (DIV 11-15) were exposed to 50 μM Fe^2+ or 10 mM BSO, alone or with inclusion of 5 mM Li^+. Neuronal death was analyzed 24 hr later by measuring levels of LDH released into the bathing medium, mean±SEM (n=9-12 culture wells per condition).
Mouse cortical cell cultures (DIV 11-15) were exposed to 30 μM Fe^2+ or 10 mM BSO, alone or in the presence of 1 μM 2-hydroxy TTBA, 10-100 μM vitamin E, or 5 mM Li^+. Neuronal death was analyzed 24 h later by measuring LDH efflux in the bathing media (mean±SEM, n=12). *, Significant difference from the relevant control (Fe^2+ or BSO alone), p<0.05 using ANOVA and Student-Newman-Keuls test.
For mixed neuron-glia culture, mouse cerebral cortices were removed from brains of the 11-15 day-old-fetal mice (E11-15), gently triturated and plated on 24 well plates (2×10^5 cells/plate) precoated with 100 μg/ml poly-D-lysine and 4 pg/ml laminin. Cultures were maintained at 37° C. in a humidified 5% CO2 atmosphere. Plating media consist of Eagles minimal essential media (MEM, Earles salts, supplied glutamine-free) supplemented with 5% horse serum, 5% fetal bovine serum, 26.5 mM bicarbonate, 2 mM glutamine, and 21 mM glucose.
After 7-8 days in vitro (DIV 7-8), 10 μM cytosine arabinofuranoside (Ara-C) was included to halt overgrowth of glia. The drug treatment was carried on DIV 11-15 cortical cell culture. Overall neuronal cell injury was assessed by measuring amount of lactate dehydrogenase (LDH) released into the bathing medium 24 hr after neurotoxic insults as previously described (Koh and Choi, J Neurosci Methods 20:83-90, 1987).
Oxidative stress was induced by exposing mixed cortical cell cultures containing neurons and glia (DIV 11-15) to 50 μM FeCl2, a hydroxyl radical-producing transition metal via a Fenton reaction, or 10 mM DL-buthionine-[S,R]-sulfoximine (BSO), a glutathione depleting agent. Widespread neuronal death was observed 24 hours later. […] Administration of vitamin E prevented Fe^2+-induced free radical neurotoxicity at higher doses. This implies that 2-Hydroxy-TTBA or 2-Hydroxy-TPEA is a potent neuroprotectant against oxidative stress.

[6] = tested on: cortical cell cultures containing neurons and glia; experiment: cyclosporine A or calyculin A-induced neuronal cell apoptosis in cortical cell cultures; format: cell-based, mouse; details: 24 hr; for cyclosporine A-induced neuronal cell apoptosis, effect in words: 20 μM cyclosporine A, 100 μM Vitamin E, 1 μM 2-hydroxy-TTBA, 1 μM 2-hydroxy-TPEA
Experimental: Mouse cortical cell cultures (DIV 10-12) were exposed to 20 μM cyclosporine A or 10 nM calculin A, alone or with inclusion of 0.3-30 mM Li. Neuronal death was analyzed 24-28 hr later by measuring levels of LDH released into the bathing medium, mean±SEM (n=9-12 culture wells per condition).
Mouse cortical cell cultures (DIV 10-12) were exposed to 20 μM cyclosporine A, alone or with 100 μM Vitamin E, 1 μM 2-hydroxy-TTBA, or 1 μM 2-hydroxy-TPEA. Neuronal death was analyzed 24 hr later by measuring levels of LDH released into the bathing medium, mean±SEM (n=9-12 culture wells per condition).
Cortical cell cultures containing neurons and glia at 10-12 days in vitro (DIV 10-12) were exposed to 20 μM cyclosporine A (CsA) or 10 nM caliculin A (cal A). Neurons underwent widespread apoptosis 24 hr later as previously reported (McDonald et al., 1996; Ko et al., 2000). […] This implies that Li^+ and the neuroprotective drugs (vitamin E, trolox, BAS, CBAS, FBAS, TBAS, PBAS, MBAS, NPAA, NPPAA, 2-Hydroxy-TTBA, and 2-Hydroxy-TPEA) selectively prevent neuronal cell apoptosis and free radical-mediated necrosis, respectively.

[7] = tested on: Fas-FADD interaction; experiment: Fas-FADD interaction in serum-deprived neuron-rich cultures (immunoprecipitation, Western blot); format: cell-based, mouse; details: deprived of serum for 8 hr
Experimental: as §1, §2

[8] = tested on: mixed cortical cell cultures containing neurons and glia; experiment: Fe2+-induced free radical neurotoxicity in mixed cortical cell cultures (LDH release); format: cell-based, mouse; details: for Fe^2+-induced free radical neurotoxicity, effect in words: 50 μM Fe^2+, 24 hr, 2-Hydroxy-TTBA or 2-Hydroxy-TPEA at doses as low as 0.3 μM, vitamin E at higher doses, Li^+ 10 mM (legend 5 mM); for IC50: 50 μM FeCl2, neuronal death 24 hr later (LDH), read-out: IC50 (50% protection against Fe^2+-induced free radical neurotoxicity)
Experimental: as §3
Mouse cortical cell cultures (DIV 11-15) were exposed to 30 μM Fe^2+ or 10 mM BSO, alone or in the presence of 1 μM 2-hydroxy TTBA, 10-100 μM vitamin E, or 5 mM Li^+.
For mixed neuron-glia culture, mouse cerebral cortices were removed from brains of the 11-15 day-old-fetal mice (E11-15), gently triturated and plated on 24 well plates (2×10^5 cells/plate) precoated with 100 μg/ml poly-D-lysine and 4 pg/ml laminin. Cultures were maintained at 37° C. in a humidified 5% CO2 atmosphere.
After 7-8 days in vitro (DIV 7-8), 10 μM cytosine arabinofuranoside (Ara-C) was included to halt overgrowth of glia. The drug treatment was carried on DIV 11-15 cortical cell culture.
Oxidative stress was induced by exposing mixed cortical cell cultures containing neurons and glia (DIV 11-15) to 50 μM FeCl2, a hydroxyl radical-producing transition metal via a Fenton reaction, or 10 mM DL-buthionine-[S,R]-sulfoximine (BSO), a glutathione depleting agent.

[9] = tested on: G93A transgenic mice; format: in vivo, mouse
Experimental: Animals were daily fed with 2-hydroxy TTBA (30 mg/kg/d), 0.2% lithium carbonate (200 mg/kg/d, Li), or a combination of both (2-hydroxy TTBA+Li) from 8 weeks of age in diet.
Animals were daily fed with 2-hydroxy TTBA (30 mg/kg/d), 0.2% lithium carbonate (Li), or a combination of both (2-hydroxy TTBA+Li) from 8 weeks of age in diet.
C & D: (C) Bright-field photomicrographs of cresyl violet-stained ventral horn sections from the wild type (a), or G93AA transgenic mice treated with vehicle (b), or with a combination of 2-hydroxy TTBA+Li (c) at 16 weeks of age.

[10] = 2-hydroxy TTBA 30 mg/kg/d, 0.2% lithium carbonate, or both, in diet from 8 weeks of age, n=13

Compound: O=C(O)c1cc(NCCc2cc(C(F)(F)F)cc(C(F)(F)F)c2)ccc1O [chemical 27, 5-[2-(3,5-Bis-trifluoromethyl-phenyl)-ethylamino]-2-hydroxy-benzoic acid]
- single-dose toxicity, result in words [1]: did not show dose-dependent result
- IC50 [2]: 109 µM

Compound: [Li+] [Li^+, lithium ion, reference compound]
- serum deprivation-induced neuronal cell apoptosis, effect in words [3]: prevented; also recorded: prevents apoptosis
- levels of Fas, FADD, cleaved caspase-8 and caspase-3 (Fas pathway) in lumbar spinal cord [4]: completely blocked
- BSO-induced free radical neurotoxicity, effect in words ([5]; 10 mM BSO, 24 hr, 2-Hydroxy-TTBA or 2-Hydroxy-TPEA at doses as low as 0.3 μM, Li^+ 10 mM (legend 5 mM)): did not attenuate; also recorded: does not attenuate
- BSO-induced neuronal death (oxidative stress), effect in words ([5]; FIG. 5A: 10 mM BSO, 24 h, 1 μM 2-hydroxy TTBA (submicromolar), 5 mM Li^+): not attenuated and not
- neuronal cell apoptosis, effect in words ([6]; 20 μM cyclosporine A or 10 nM calyculin A, Li^+ at doses of 3-30 mM): dose-dependently attenuated
- Fas-FADD interaction, effect in words [7]: blocked
- Fe^2+-induced free radical neurotoxicity, effect in words [8]: did not attenuate; also recorded: does not attenuate
- Fe^2+-induced neuronal death (oxidative stress), effect in words ([8]; FIG. 5A: 30 μM Fe^2+, 24 h, 1 μM 2-hydroxy TTBA (submicromolar), 5 mM Li^+): not attenuated and not
- Mortality (survival) [9, 10]: 137.2 days and 137.2^a ± 2.20 days
- Onset from PaGE [9, 10]: 113.3 days and 113.3^a ± 2.28 days
- Onset from Rotarod [9, 10]: 114.7 days and 114.7^a ± 2.23 days
- weight loss, % of the wild type ([9]; G93A mice at 18 weeks of age, oral administration in diet): 53%
- extension reflex, motor strength, and coordination ([9]; G93A mice, drug in diet): improved
- degeneration (loss) of ventral motor neurons in lumbar spinal cord ([9]; at 16 weeks of age): 58%
- motor performance versus vehicle-treated control ([9]; from 11 weeks to 18 weeks, in the diet): better motor performance

Compound: COC(=O)C[C@H](NC(=O)[C@H](C)NC(=O)[C@@H](NC(=O)OCc1ccccc1)C(C)C)C(=O)CF [zVADfmk] (Cbz-Val-Ala-Asp(OMe)-CH2F)
- serum deprivation-induced neuronal cell apoptosis, effect in words [3]: prevented

Compound: O=C(O)c1cc(NCc2ccc([N+](=O)[O-])cc2)ccc1O [NBAS, 5-(4-nitrobenzyl)aminosalicylic acid]
- IC50 ([8]; Mus musculus, Neuron): 1.9 µM

Compound: O=C(O)c1cc(NCCc2cccc(C(F)(F)F)c2)ccc1O [chemical 04, 2-Hydroxy-5-[2-(3-trifluoromethyl-phenyl)-ethylamino]-benzoic acid]
- single-dose toxicity, result in words [1]: high toxicity or dose-independent toxicity

Compound: O=C(O)c1cc(NCCCc2ccc(C(F)(F)F)cc2)ccc1O [chemical 42, 2-Hydroxy-5-[3-(4-trifluoromethyl-phenyl)-propylamino]-benzoic acid]
- single-dose toxicity, result in words [1]: high toxicity or dose-independent toxicity
- IC50 [2]: 68.3 µM

Compound: O=C(O)c1cc(NCc2ccc(Cl)cc2)ccc1O [CBAS]
- IC50 [8]: 0.2 µM

Compound: O=C(O)c1cc(NCc2c(F)c(F)c(F)c(F)c2F)ccc1O [PBAS, 5-(pentafluoro-benzyl)aminosalicylic acid]
- IC50 [8]: 0.1 µM

Compound: O=C(O)c1cc(NCCc2ccc([N+](=O)[O-])cc2)ccc1O [NPAA, 5-[2-(4-nitrophenyl)-ethyl]aminosalicylic acid]
- IC50 ([8]; Mus musculus, Neuron): 0.27 µM

Compound: Vitamin E [reference compound]
- cyclosporine A-induced neuronal cell apoptosis, effect in words [6]: do not attenuate
- cyclosporine A-induced neuronal cell apoptosis, effect in words ([6]; listed as vitamin E): not attenuated
- IC50 [8]: 22 µM
- Fe^2+-induced free radical neurotoxicity, effect in words [8]: prevented
